From US9890139B2, “CYP17 inhibitors/antiandrogens” (Orion Corporation, priority 2013, dated 2018)
Read-outs that look alike come from different tables or passages of the source.

Legend:
full-length human AR = target: T1, full-length human AR (Homo sapiens, UniProt P10275); test: AR antagonism, reporter gene assay in hAR/HEK293 cells; format: cell-based; details: HEK293 cells stably transfected with full-length human AR and androgen responsive luciferase reporter; co-treated with submaximal testosterone (usually 0.45 nM); 1% DMSO; triplicates
T1 construct: expression vector encoding full-length human AR; expressed in transfected cells; host or cells: HEK293 (hAR/HEK293 cells)
T1 sequence (P10275 1-920): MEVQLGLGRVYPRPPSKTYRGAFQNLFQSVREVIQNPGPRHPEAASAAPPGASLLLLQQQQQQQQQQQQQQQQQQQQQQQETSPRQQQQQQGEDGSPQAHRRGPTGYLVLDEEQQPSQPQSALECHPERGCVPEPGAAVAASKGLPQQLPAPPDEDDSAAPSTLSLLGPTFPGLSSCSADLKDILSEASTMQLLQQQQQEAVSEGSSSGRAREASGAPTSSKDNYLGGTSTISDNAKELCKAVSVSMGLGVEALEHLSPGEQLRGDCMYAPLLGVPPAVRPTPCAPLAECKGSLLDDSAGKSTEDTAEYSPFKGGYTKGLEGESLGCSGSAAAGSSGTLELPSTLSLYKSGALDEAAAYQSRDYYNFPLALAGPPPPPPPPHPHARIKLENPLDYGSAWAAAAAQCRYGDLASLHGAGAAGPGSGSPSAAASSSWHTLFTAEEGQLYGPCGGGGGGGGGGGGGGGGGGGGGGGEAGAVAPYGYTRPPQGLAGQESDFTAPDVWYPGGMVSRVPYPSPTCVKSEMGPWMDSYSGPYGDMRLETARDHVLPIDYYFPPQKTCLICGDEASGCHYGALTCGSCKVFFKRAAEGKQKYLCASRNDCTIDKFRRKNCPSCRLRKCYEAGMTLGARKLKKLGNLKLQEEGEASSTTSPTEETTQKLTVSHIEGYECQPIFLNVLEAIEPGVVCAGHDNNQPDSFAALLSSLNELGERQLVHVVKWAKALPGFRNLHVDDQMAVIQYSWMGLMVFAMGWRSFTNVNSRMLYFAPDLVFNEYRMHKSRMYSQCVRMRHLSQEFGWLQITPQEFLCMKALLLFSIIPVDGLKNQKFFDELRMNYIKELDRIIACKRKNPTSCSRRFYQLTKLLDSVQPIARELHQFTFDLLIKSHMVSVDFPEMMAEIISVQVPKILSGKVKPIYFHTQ
Procedure: Antagonism of test compounds for AR was measured by reporter gene assay in human embryonic kidney (HEK293) cells stably transfected with an expression vector encoding full-length human AR and androgen responsive luciferase reporter gene construct (hAR/HEK293 cells). To determine antagonism for hAR, the cells were treated simultaneously with increasing concentrations of the test compound and submaximal concentration of testosterone (usually 0.45 nM). The final DMSO concentration was 1%. All test compounds were studied in triplicates. The cells were incubated for […] before measurement of luciferase activity using Luciferase Assay System (Promega Corporation).

17,20 lyase (CYP17) = target: T2, 17,20 lyase (CYP17) (Homo sapiens, UniProt P05093); test: 17,20 lyase (CYP17) inhibition, acetic acid release assay (AARA) on H295R cells; format: cell-based
T2 construct: endogenous in cells; host or cells: H295R human adrenocortical carcinoma cells
T2 sequence (P05093 1-508): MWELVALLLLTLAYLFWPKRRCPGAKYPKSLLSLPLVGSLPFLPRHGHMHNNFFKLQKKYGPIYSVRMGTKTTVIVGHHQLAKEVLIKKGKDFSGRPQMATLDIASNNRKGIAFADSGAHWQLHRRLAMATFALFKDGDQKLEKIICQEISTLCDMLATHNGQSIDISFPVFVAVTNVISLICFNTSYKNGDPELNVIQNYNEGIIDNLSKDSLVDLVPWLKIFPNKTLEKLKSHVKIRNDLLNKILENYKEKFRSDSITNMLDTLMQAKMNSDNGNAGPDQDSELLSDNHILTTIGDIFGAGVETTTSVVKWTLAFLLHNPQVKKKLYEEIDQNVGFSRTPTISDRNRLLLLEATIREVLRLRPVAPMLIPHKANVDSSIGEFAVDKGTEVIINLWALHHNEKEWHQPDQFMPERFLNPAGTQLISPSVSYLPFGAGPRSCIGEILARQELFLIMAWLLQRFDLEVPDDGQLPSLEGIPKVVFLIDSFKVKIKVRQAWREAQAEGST
Procedure: The ability of the test compounds to inhibit 17,20 lyase catalysed conversion of 17α-hydroxypregnenolone to dehydroepiandrosterone and acetic acid was measured by acetic acid release assay (AARA) on human H295R adrenocortical carcinoma cell line (Grigoryev, D. N. et al., Analytical Biochemistry 1999; 267:319-330). […] The final DMSO concentration was 1%. Cell culture medium was extracted with dextran-coated charcoal suspension (Isomaa, V. et al., Endocrinology 1982; 111(3):833-843). ^3H-acetic acid was determined by mixing 100 μl of supernatant fraction in 200 μl of scintillation fluid (OptiPhase SuperMix, Perkin Elmer). Radioactivity was measured using a Microbeta scintillation counter (1450 MicroBeta Trilux, Wallac). All the test compounds were studied in quadruplicates.

[1] = human H295R adrenocortical carcinoma cells, overnight (16-19 h) with 17α-[21-3H]hydroxypregnenolone, 3H-acetic acid release, 1% DMSO, quadruplicates, read-out: CYP17 inhibition IC50

SMILES	IC50 (full-length human AR) [nM]	IC50 (17,20 lyase (CYP17)) [nM]	IC50 (17,20 lyase (CYP17); [1]) [nM]
CCN(c1ccc(C#N)c(C(F)(F)F)c1)C1CC=C(c2cncn2C2CC2)C1 (racemic) [Ex. 53, 4-((3-(1-Cyclopropyl-1H-imidazol-5-yl)cyclopent-3-enyl)(ethyl)amino)-2-(trifluoromethyl)benzonitrile]	57	19	
CN(c1ccc(C#N)c(C(F)(F)F)c1)C1C=C(n2ccnc2)CCC1(C)C (racemic) [Ex. 130 racemate, 4-{[3-(1H-Imidazol-1-yl)-6,6-dimethylcyclohex-2-enyl](methyl)amino}-2-(trifluoromethyl)benzonitrile]	65		14
CCn1cncc1C1=CCC(N(CC2CC2)c2ccc(C#N)c(C(F)(F)F)c2)C1 (racemic) [Ex. 226 racemate, 4-((Cyclopropylmethyl)(3-(1-ethyl-1H-imidazol-5-yl)cyclopent-3-en-1-yl)-amino)-2-(trifluoromethyl)benzonitrile]	29	43	
CCN(c1ccc(C#N)c(Cl)c1)C1CC=C(c2cncn2CC)C1 (racemic) [Ex. 227 racemate, 2-Chloro-4-(ethyl(3-(1-ethyl-1H-imidazol-5-yl)cyclopent-3-en-1-yl)amino)-benzonitrile]	57	19	
CCN(c1ccc(C#N)c(C(F)(F)F)c1)[C@H]1CCC[C@@H](c2ccncc2)C1 (relative stereo) [Ex. 61, cis-4-(Ethyl(3-(pyridin-4-yl)cyclohexyl)amino)-2-(trifluoromethyl)benzonitrile]	35	108	
CN(c1ccc(C#N)c(C(F)(F)F)c1)[C@@H]1C=C(n2ccnc2)[C@H](O)CC1(C)C (relative stereo) [Ex. 236, Cis-4-((4-hydroxy-3-(1H-imidazol-1-yl)-6,6-dimethylcyclohex-2-enyl)-(methyl)amino)-2-(trifluoromethyl)benzonitrile]	124	247	
CCN(c1ccc(C#N)c(Cl)c1C)C1CCCC(n2ccnc2)C1 (single isomer, unassigned) [Ex. 13, 4-((3-(1H-imidazol-1-yl)cyclohexyl)(ethyl)amino)-2-chloro-3-methylbenzonitrile]	60	92	
CCN(c1ccc(C#N)c(C(F)(F)F)c1)C1CC(n2ccnc2)CCC1(C)C (single isomer, unassigned) [Ex. 46 cis-enantiomer 2, 4-((5-(1H-Imidazol-1-yl)-2,2-dimethylcyclohexyl)(ethyl)amino)-2-(trifluoromethyl)benzonitrile]	40	49	
CCN(c1ccc(C#N)c(Cl)c1)C1CC=C(c2c[nH]cn2)C1 (stereo not drawn) [Ex. 133, 4-((3-(1H-Imidazol-4-yl)cyclopent-3-en-1-yl)(ethyl)amino)-2-chlorobenzonitrile]			7
CCN(c1ccc(C#N)c(C(F)(F)F)c1)C1CC=C(c2c[nH]cn2)C1 (stereo not drawn) [Ex. 150, 4-((3-(1H-imidazol-4-yl)cyclopent-3-en-1-yl)(ethyl)amino)-2-(trifluoromethyl)benzonitrile]			17
CCN(c1ccc(C#N)c(C(F)(F)F)c1)C1CCC(c2cnc[nH]2)C1 (stereo not drawn) [Ex. 219, 4-((3-(1H-imidazol-5-yl)cyclopentyl)(ethyl)amino)-2-(trifluoromethyl)-benzonitrile]			105
CN(c1ccc(C#N)c(C(F)(F)F)c1)C1C=C(c2cncn2CCOCc2ccccc2)CCC1(C)C (stereo not drawn) [Ex. 220, 4-((3-(1-(2-(benzyloxy)ethyl)-1H-imidazol-5-yl)-6,6-dimethylcyclohex-2-en-1-yl)(methyl)amino)-2-(trifluoromethyl)benzonitrile]			10
CCN(c1ccc(C#N)c(C(F)(F)F)c1)C1CCCC(c2cnc[nH]2)C1 (stereo not drawn) [Ex. 224 cis-diasteromer, 4-((3-(1H-imidazol-5-yl)cyclohexyl)(ethyl)amino)-2-(trifluoromethyl)benzonitrile]			59
